Earlier results on two compounds are cited in paper PMC3814616, “BRAF inhibitors suppress apoptosis through off-target inhibition of JNK signaling” (eLife, 2013).

Series [1] concerns A375 melanoma cell line. As to conditions: ref Tsai et al., 2008; cited from earlier work.
In series [2] the target is T1, MST1 (STK4) (Homo sapiens, UniProt Q13043).
T1 construct: purchased KINOMEscan (DiscoveRx), San Diego, CA
T1 sequence (Q13043 1-487): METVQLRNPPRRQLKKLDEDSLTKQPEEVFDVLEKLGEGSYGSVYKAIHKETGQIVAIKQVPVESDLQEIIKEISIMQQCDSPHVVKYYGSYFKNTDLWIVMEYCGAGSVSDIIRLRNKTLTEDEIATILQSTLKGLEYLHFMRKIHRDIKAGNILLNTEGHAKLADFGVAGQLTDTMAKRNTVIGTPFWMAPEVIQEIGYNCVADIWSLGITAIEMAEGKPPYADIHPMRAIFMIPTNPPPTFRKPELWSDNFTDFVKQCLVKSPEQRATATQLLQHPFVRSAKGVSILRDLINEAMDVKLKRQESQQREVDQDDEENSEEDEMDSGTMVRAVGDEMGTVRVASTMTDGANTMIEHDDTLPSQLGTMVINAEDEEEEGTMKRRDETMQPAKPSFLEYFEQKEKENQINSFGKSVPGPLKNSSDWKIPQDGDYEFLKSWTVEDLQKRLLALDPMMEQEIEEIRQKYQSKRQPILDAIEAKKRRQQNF
On the set-up: method as in Tsai et al., 2008. As to conditions: ref Tsai et al., 2008; read-out: Published biochemical IC50; cited from earlier work.

Series [3] deals with T2, MAP4K4 (Homo sapiens, UniProt O95819).
T2 construct: purchased KINOMEscan (DiscoveRx), San Diego, CA
T2 sequence (O95819 whole entry): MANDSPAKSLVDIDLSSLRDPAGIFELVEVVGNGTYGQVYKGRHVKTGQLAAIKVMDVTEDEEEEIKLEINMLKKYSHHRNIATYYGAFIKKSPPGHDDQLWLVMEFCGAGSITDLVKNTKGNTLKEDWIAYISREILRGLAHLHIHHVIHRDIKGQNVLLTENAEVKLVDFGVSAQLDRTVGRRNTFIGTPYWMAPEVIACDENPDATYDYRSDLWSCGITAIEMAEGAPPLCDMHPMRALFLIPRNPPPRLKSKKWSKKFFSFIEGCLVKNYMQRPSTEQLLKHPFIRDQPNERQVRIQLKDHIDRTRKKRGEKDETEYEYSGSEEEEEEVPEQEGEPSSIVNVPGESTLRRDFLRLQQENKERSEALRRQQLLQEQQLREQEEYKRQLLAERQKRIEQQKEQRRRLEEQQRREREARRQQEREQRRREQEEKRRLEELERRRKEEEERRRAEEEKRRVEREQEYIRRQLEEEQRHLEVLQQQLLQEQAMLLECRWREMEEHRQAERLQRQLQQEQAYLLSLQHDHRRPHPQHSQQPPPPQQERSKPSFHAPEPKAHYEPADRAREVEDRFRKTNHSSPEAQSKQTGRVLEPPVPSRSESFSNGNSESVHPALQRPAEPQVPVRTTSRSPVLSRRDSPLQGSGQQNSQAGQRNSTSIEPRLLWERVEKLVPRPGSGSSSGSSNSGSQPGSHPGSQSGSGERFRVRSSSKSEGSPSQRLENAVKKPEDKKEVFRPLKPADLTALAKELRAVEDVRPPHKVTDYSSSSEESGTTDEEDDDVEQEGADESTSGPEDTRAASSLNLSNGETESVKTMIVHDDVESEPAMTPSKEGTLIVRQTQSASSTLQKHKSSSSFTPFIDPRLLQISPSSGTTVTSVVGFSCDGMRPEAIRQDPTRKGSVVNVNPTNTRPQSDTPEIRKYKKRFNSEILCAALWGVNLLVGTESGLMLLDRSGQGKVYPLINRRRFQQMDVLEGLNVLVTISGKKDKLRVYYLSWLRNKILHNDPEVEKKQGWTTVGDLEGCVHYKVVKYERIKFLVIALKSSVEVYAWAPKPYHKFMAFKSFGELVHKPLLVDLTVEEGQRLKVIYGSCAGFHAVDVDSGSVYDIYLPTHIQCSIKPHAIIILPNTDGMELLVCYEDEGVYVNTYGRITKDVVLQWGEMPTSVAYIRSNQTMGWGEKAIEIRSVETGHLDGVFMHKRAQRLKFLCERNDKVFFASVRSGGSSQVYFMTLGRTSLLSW
Further details: method as in Bollag et al., 2010. As to conditions: ref Bollag et al., 2010; read-out: Published biochemical IC50; cited from earlier work.

Series [4] deals with T3, MINK (MINK1) (Homo sapiens, UniProt Q8N4C8).
T3 construct: purchased KINOMEscan (DiscoveRx), San Diego, CA
T3 sequence (Q8N4C8 whole entry): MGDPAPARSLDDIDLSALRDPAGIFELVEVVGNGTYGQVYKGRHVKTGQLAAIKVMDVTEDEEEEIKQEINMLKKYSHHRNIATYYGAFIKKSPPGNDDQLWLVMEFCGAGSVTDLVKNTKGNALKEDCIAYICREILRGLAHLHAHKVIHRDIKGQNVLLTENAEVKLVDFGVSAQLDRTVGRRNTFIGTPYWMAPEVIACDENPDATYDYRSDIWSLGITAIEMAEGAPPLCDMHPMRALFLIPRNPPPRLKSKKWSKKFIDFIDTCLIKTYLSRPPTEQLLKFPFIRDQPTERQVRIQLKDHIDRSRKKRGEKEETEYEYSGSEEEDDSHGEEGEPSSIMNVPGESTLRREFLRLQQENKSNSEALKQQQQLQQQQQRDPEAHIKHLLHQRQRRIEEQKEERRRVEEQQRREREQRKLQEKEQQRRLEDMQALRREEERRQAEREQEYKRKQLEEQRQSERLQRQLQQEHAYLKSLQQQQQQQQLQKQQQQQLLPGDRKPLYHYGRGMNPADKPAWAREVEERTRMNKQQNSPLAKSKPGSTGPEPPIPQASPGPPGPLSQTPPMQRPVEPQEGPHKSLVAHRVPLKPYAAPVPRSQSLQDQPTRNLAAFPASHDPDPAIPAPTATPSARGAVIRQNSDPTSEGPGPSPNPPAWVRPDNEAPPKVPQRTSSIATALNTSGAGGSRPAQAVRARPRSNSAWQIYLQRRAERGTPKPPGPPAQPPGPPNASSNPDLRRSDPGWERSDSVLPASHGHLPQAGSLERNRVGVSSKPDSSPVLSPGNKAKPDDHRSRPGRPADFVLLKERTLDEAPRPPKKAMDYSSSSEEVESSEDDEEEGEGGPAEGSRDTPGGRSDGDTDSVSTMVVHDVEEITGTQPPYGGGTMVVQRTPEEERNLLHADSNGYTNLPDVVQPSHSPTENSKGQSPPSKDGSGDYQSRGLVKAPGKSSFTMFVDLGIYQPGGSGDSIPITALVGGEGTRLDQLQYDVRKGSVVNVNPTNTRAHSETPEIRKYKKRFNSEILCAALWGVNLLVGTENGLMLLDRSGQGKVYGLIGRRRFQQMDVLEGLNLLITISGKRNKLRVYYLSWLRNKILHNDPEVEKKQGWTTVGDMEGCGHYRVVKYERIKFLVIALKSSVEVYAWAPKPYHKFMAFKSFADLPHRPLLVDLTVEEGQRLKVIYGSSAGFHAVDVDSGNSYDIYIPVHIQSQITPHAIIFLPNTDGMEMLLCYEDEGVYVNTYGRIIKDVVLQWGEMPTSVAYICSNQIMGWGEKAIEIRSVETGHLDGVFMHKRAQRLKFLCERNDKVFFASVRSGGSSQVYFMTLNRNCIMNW
Further details: method as in Bollag et al., 2010. The following applies: ref Bollag et al., 2010; read-out: Published biochemical IC50; cited from earlier work.

The target in series [5] is T4, MEK6 (MAP2K6) (Homo sapiens, UniProt P52564).
T4 construct: purchased KINOMEscan (DiscoveRx), San Diego, CA
T4 sequence (P52564 whole entry): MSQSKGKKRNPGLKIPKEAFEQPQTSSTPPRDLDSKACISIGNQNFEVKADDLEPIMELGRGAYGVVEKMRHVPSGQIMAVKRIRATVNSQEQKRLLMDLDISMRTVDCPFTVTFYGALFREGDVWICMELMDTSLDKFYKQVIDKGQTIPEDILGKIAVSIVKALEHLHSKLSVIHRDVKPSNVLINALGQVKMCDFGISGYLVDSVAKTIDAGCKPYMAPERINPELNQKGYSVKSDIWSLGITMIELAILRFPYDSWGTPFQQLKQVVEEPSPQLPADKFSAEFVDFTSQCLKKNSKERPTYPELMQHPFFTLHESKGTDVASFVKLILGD
Further details: method as in Bollag et al., 2010. The following applies: ref Bollag et al., 2010; read-out: Published biochemical IC50; cited from earlier work.

Series [6] concerns the target T5, ASK1 (MAP3K5) (Homo sapiens, UniProt Q99683).
T5 construct: purchased KINOMEscan (DiscoveRx), San Diego, CA
T5 sequence (Q99683 1-1374): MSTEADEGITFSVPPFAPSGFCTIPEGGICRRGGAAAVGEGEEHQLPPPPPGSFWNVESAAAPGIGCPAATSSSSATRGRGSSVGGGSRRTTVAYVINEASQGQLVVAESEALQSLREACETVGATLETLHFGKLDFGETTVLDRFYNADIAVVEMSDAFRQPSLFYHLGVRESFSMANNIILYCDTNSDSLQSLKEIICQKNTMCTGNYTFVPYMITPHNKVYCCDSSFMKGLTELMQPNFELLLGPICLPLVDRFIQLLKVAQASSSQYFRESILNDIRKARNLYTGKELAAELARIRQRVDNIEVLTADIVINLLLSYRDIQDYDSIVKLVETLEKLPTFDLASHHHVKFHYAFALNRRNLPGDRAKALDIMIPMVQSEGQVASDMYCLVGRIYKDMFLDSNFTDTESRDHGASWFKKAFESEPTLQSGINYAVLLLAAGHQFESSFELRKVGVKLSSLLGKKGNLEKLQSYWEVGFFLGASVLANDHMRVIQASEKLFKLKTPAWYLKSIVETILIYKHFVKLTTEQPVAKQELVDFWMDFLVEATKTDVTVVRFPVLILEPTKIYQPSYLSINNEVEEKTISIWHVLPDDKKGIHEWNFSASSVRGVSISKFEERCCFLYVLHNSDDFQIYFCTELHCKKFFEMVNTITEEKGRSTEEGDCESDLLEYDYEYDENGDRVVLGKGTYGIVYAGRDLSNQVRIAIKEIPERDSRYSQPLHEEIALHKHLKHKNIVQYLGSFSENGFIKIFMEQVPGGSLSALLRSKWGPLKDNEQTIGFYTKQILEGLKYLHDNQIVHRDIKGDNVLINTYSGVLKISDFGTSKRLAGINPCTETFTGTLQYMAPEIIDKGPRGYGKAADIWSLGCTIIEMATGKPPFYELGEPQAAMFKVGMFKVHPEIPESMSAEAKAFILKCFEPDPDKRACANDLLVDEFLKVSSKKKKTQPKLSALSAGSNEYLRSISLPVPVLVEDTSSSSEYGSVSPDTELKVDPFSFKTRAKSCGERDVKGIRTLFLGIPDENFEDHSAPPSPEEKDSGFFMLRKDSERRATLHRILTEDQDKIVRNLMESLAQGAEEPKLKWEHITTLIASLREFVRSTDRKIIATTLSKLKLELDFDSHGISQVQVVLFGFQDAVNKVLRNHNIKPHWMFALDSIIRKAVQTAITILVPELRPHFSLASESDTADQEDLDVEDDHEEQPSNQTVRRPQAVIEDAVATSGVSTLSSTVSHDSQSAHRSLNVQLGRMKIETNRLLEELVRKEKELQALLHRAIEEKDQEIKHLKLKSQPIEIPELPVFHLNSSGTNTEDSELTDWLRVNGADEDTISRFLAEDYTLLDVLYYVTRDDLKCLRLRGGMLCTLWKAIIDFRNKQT
Further details: method as in Bollag et al., 2010. The following applies: ref Bollag et al., 2010; read-out: Published biochemical IC50; cited from earlier work.

For series [7], the target named is T6, TAOK3 (Homo sapiens, UniProt Q9H2K8).
T6 construct: purchased KINOMEscan (DiscoveRx), San Diego, CA
T6 sequence (Q9H2K8 whole entry): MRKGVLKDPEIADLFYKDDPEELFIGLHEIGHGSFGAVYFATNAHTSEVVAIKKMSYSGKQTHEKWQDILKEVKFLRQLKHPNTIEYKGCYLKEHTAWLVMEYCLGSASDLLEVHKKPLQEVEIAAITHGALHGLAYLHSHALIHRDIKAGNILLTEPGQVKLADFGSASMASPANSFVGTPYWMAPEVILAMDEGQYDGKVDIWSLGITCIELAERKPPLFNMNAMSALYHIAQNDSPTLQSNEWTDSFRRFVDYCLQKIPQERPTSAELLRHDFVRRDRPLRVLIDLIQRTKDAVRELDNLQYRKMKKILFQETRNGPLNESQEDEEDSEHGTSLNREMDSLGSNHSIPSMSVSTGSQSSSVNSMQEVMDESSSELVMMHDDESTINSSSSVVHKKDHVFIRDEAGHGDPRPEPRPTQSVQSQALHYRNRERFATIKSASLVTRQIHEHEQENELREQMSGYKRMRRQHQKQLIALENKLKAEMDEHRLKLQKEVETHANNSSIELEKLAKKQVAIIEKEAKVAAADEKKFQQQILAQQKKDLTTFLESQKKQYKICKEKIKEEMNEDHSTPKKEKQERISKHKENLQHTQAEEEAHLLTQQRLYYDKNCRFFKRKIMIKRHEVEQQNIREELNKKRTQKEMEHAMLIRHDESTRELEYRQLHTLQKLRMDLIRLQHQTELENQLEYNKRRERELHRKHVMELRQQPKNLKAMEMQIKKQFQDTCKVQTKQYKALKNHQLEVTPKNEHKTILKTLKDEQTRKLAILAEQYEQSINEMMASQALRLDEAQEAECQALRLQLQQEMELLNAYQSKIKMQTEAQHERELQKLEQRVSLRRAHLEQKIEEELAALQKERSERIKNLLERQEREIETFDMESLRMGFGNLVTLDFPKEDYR
Further details: method as in Bollag et al., 2010. The following applies: ref Bollag et al., 2010; read-out: Published biochemical IC50; cited from earlier work.

For series [8] the following is noted: 960 mg PO BID, ref Flaherty et al., 2010; cited from earlier work.

The term GI50 denotes the concentration giving 50% growth inhibition. The IC50 is the concentration that gives 50% inhibition. Take `CCCS(=O)(=O)Nc1ccc(F)c(C(=O)c2c[nH]c3ncc(Cl)cc23)c1F` [PLX4720]: the GI50 in series [1] was 500 nM. Also, the IC50 in series [2] is > 5000 nM.

Consider `CCCS(=O)(=O)Nc1ccc(F)c(C(=O)c2c[nH]c3ncc(-c4ccc(Cl)cc4)cc23)c1F` [vemurafenib], for which the IC50 in series [3], in series [4], in series [5], in series [6] and in series [7] was > 1000 nM throughout. Further, the “mean sustained serum levels” value in series [8] was 86 µM.
